The subject of one data set is Anas platyrhynchos. As to conditions: short-term; oral; feed; mortality.
The next data set has as its system Apis mellifera. To be noted: acute, mortality.
Another data set concerns Colinus virginianus. To be noted: for LD50: acute, oral, mortality.
A further data set deals with Danio rerio. To be noted: subchronic; duration: 35 days; reproduction.
Another data set relates to Daphnia magna. As to conditions: chronic/long-term; duration: 21 days; reproduction.
The next data set relates to Folsomia candida. As to conditions: chronic/long-term; mortality.
In another data set the test system is Mus musculus. To be noted: chronic.
For a further data set, the system named is Oncorhynchus mykiss. As to conditions: acute; duration: 96 hours; mortality.
For another data set, the system named is Oryctolagus sp. As to conditions: developmental; development.
The subject of a further data set is Rattus norvegicus. To be noted: oral.
The subject of the next data set is Tagia sp. To be noted: chronic/long-term; growth.
In the next data set the test system is Aphidius rhopalosiphi. As to the kind of experiment: LR50; higher = less toxic. As to conditions: not reported; mortality.

Data on one molecule can be found in EPA's ToxValDB 9.5 (doi:10.2903/j.efsa.2017.4874).

In brackets after ≈: the same amount, converted by molar mass.

One may read the NOAEL as the highest dose or exposure tested at which no adverse effect was seen. In general, LC50 refers to the concentration lethal to half of the exposed cells or organisms. With `O=C(Nc1ccccc1)Nc1ccnc(Cl)c1` [Forchlorfenuron], the LD50 was over 3120 mg/kg-day in the data set with Anas platyrhynchos; over 30 µg/piece with Apis mellifera (dermal); over 34.1 µg/piece with Apis mellifera (oral, unspecified); over 3120 mg/kg-day in the data set on Colinus virginianus (diet); over 2250 mg/kg-day with Colinus virginianus; 4920 mg/kg-day in the data set on Rattus norvegicus (acute, mortality). For the same molecule, the NOEC in the data set on Colinus virginianus (reproduction developmental) worked out at 88.4 mg/kg-day; in the data set with Danio rerio, 1.01 mg/L; in the data set on Daphnia magna it was 1.96 mg/L; with Folsomia candida, 3.72 mg/kg; in the data set with Tagia sp., 0.3 mg/kg. Moreover, the NOAEL came to 5 mg/kg-day in the data set with Mus musculus (duration: 24 months, histopathology: neoplastic); 4.9 mg/kg-day in the data set with Mus musculus (histopathology: nonneoplastic); 50 mg/kg-day with Oryctolagus sp.; 11 mg/kg-day in the data set on Rattus norvegicus (reproduction developmental, diet, body weight); 16.2 mg/kg-day with Rattus norvegicus (subchronic, duration: 90 days, organ weight). The LC50 in the data set with Oncorhynchus mykiss came to 1.93 µg/mL (≈ 7.79 µM). For the same molecule, the LR50 with Aphidius rhopalosiphi was over 10 g/ha.
